Laboratory results published in patent US7348425B2, “Inhibitors of HCV replication” (Bristol-Myers Squibb Company, priority 2004, dated 2008).

What was measured:
[1] = biological target: T1, HCV NS5B RdRp genotype 1b (Hepatitis C virus genotype 1b, UniProt Q9WMX2); experiment: Standard HCV NS5B RdRp enzyme assay; format: biochemical; details: standard method
T1 construct: The protein was expressed with an 18 amino acid C-terminal truncation to enhance the solubility; made in house; host or cells: E. coli BL21 (DE3), pET21a
T1 sequence (Q9WMX2 2420-2992): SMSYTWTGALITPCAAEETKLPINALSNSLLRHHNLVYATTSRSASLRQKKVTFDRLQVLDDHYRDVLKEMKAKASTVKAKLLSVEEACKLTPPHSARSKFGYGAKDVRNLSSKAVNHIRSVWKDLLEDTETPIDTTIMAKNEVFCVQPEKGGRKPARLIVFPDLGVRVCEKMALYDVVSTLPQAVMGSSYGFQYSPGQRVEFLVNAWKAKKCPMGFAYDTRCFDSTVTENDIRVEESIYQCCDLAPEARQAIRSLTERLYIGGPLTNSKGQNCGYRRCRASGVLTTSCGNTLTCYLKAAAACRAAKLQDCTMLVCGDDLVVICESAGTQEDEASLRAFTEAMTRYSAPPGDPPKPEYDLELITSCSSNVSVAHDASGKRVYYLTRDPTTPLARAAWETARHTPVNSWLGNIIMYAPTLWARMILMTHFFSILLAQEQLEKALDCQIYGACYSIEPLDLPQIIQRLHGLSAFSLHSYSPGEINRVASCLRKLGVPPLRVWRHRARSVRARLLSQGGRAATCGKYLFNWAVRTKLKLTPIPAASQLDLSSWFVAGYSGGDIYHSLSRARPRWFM
Procedure: HCVNS5B RdRp cloning, expression, and purification. The cDNA encoding the NS5B protein of HCV, genotype 1b, was cloned into the pET21a expression vector. The protein was expressed with an 18 amino acid C-terminal truncation to enhance the solubility. The E. coli competent cell line BL21 (DE3) was used for expression of the protein. Cultures were grown at 37° C. for ˜4 hours until the cultures reached an optical density of 2.0 at 600 nm. The cultures were cooled to 20° C. and induced with 1 mM IPTG. Fresh ampicillin was added to a final concentration of 50 μg/ml and the cells were grown overnight at 20° C.
Cell pellets (3 L) were lysed for purification to yield 15-24 mgs of purified NS5B. The lysis buffer consisted of 20 mM Tris-HCl, pH 7.4, 500 mM NaCl, 0.5% triton X-100, 1 mM DTT, 1 mM EDTA, 20% glycerol, 0.5 mg/ml lysozyme, 10 mM MgCl2, 15 ug/ml deoxyribonuclease I, and Complete TM protease inhibitor tablets (Roche). After addition of the lysis buffer, frozen cell pellets were resuspended using a tissue homogenizer. To reduce the viscosity of the sample, aliquots of the lysate were sonicated on ice using a microtip attached to a Branson sonicator. The sonicated lysate was centrifuged at 100,000×g for 1 hr at 4° C. and filtered through a 0.2 μm filter unit (Corning).
The protein was purified using three sequential chromatography steps: Heparin sepharose CL-6B, polyU sepharose 4B, and Hitrap SP sepharose (Pharmacia). The chromatography buffers were identical to the lysis buffer but contained no lysozyme, deoxyribonuclease I, MgCl2 or protease inhibitor and the NaCl concentration of the buffer was adjusted according to the requirements for charging the protein onto the column. Each column was eluted with a NaCl gradient which varied in length from 5-50 column volumes depending on the column type. After the final chromatography step, the resulting purity of the enzyme is >90% based on SDS-PAGE analysis. The enzyme was aliquoted and stored at −80° C.
Standard HCV NS5B RdRp enzyme assay. HCV RdRp genotype Ib assays were run in a final volume of 60 μl in 96 well plates (Costar 3912). The assay buffer is composed of 20 mM Hepes, pH 7.5, 2.5 mM KCl, 2.5 mM MgCl2, 1 mM DTT, 1.6 U RNAse inhibitor (Promega N2515), 0.1 mg/ml BSA (Promega R3961), and 2% glycerol. All compounds were serially diluted (3-fold) in DMSO and diluted further in water such that the final concentration of DMSO in the assay was 2%. HCV RdRp genotype 1b enzyme was used at a final concentration of 28 nM. A polyA template was used at 6 nM, and a biotinylated oligo-dT12 primer was used at 180 nM final concentration. Template was obtained commercially (Amersham 27-4110). Biotinylated primer was prepared by Sigma Genosys. ^3H-UTP was used at 0.6 μCi (0.29 μM total UTP). Reactions were initiated by the addition of enzyme, incubated at 30° C. for 60 min, and stopped by adding 25 μl of 50 mM EDTA containing SPA beads (4 μg/μl, Amersham RPNQ 0007). Plates were read on a Packard Top Count NXT after >1 hr incubation at room temperature.
The IC50 values for compounds were determined using seven different [I]. IC50 values were calculated from the inhibition using the formula y=A+((B−A)/(1+((C/x)^D))). FRET Assay Preparation. To perform the HCV FRET screening assay, 96-well cell culture plates were used. The FRET peptide (Anaspec, Inc.) (Taliani et al., Anal. Biochem. 240:60-67 (1996), hereby incorporated by reference in its entirety) contains a fluorescence donor, EDANS, near one end of the peptide and an acceptor, DABCYL, near the other end. The fluorescence of the peptide is quenched by […] resonance energy transfer (RET) between the donor and the acceptor, but as the NS3 protease cleaves the peptide the products are released from RET quenching and the fluorescence of the donor becomes apparent. […]

HCV replicon [2] = experiment: HCV replicon luciferase assay; format: cell-based, Hepatitis C virus; details: read-out: EC50
Procedure: To prepare plates, HCV replicon cells, with or without a Renilla luciferase reporter gene, were trypsinized and placed into each well of a 96-well plate with titrated test compounds added in columns 3 through 12; columns 1 and 2 contained a control compound (HCV protease inhibitor), and the bottom row contained cells without compound. The plates were then placed in a CO2 incubator at 37 degrees C.
Assays. Subsequent to addition of the test compounds described above (FRET Assay Preparation), at various times the plate was removed and Alamar blue solution (Trek Diagnostics, #00-100) was added per well as a measure of cellular toxicity. After reading in a Cytoflour 4000 instrument (PE Biosystems), plates were rinsed with PBS and then used for FRET assay by the addition of 30 ul of the FRET peptide assay reagent described above (FRET Assay Preparation) per well. The plate was then placed into the Cytoflour 4000 instrument which had been set to 340 excite/490 emission, automatic mode for 20 cycles and the plate read in a kinetic mode. Typically, the signal to noise using an endpoint analysis after the reads was at least three-fold. Alternatively, after Alamar blue reading, plates were rinsed with PBS, 50 ul of DMEM (high glucose) without phenol red was added and plates were then used for luciferase assay using the Promega Dual-Glo Luciferase Assay System.
Compound analysis was determined by quantification of the relative HCV replicon inhibition and the relative cytotoxicity values. To calculate cytoxicity values, the average Alamar Blue fluorescence signals from the control wells were set as 100% non-toxic. The individual signals in each of the compound test wells were then divided by the average control signal and multiplied by 100% to determine […]. To calculate the HCV replicon inhibition values, an average background value was obtained from the two wells containing the highest amount of HCV protease inhibitor at the end of the assay period. These numbers were similar to those obtained from naïve Huh-7 cells.
The background numbers were then subtracted from the average signal obtained from the control wells and this number was used as 100% activity. The individual signals in each of the compound test wells were then divided by the averaged control values after background subtraction and multiplied by 100% to determine percent activity. EC50 values for a protease inhibitor titration were calculated as the concentration which caused a 50% reduction in FRET or luciferase activity. The two numbers generated for the compound plate, percent cytoxicity and percent activity were used to determine compounds of interest for further analysis.

[3] = biological target: T1, HCV NS5B RdRp genotype 1b; experiment: Modified HCV NS5B RdRp enzyme assay (with preincubation); format: biochemical; details: modified method (with preincubation)
How it was run: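 Seven-point IC50s were derived from SPA-based ³H-UTP incorporation after 4 h at 30 °C (Hepes pH 7.5, 2% DMSO). Compound was first mixed with 14 nM Δ18 NS5B genotype 1b enzyme. Then 0.2 nM polyA, 0.29 μM UTP and bead-bound oligo-dT12 (20 nM) were added.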

HCV replicon [4] = experiment: HCV replicon FRET assay; format: cell-based; details: Hepatitis C virus; FRET assay; read-out: EC50
How it was run: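 Replicon cells (± Renilla luciferase reporter) incubated with titrated compound at 37 °C; NS3 protease activity read by FRET peptide cleavage (20 uM EDANS/DABCYL substrate, 340/490 nm kinetic) or luciferase.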

[5] = Hepatitis C virus, luciferase method
[6] = Hepatitis C virus, cells marked **: Luciferase assay

| Structure (SMILES) | EC50 (HCV replicon [2]; [6]) [nM] | other results |
| --- | --- | --- |
| COC(=O)c1ccc2c(C3CCCCC3)c3n(c2c1)CC(=O)Nc1ccccc1-3 [Example 20, Methyl 13-cyclohexyl-6,7-dihydro-6-oxo-5H-indolo[1,2-d][1,4]benzodiazepine-10-carboxylate] | – | IC50 [1]: > 1000 nM; EC50 (HCV replicon [2]; [5]): 1000 to 10000 nM |
| O=C(O)/C=C/c1ccc(NC(=O)C2(NC(=O)c3ccc4c(C5CCCCC5)c5n(c4c3)CC(=O)Nc3cccnc3-5)CCCC2)cc1 | – | IC50 [1]: 100 to 1000 nM; EC50 (HCV replicon [2]; [5]): < 100 nM |
| O=C(O)c1ccc2c(C3CCCCC3)c3n(c2c1)CC(C(=O)N1CCOCC1)Cc1ccccc1-3 (stereo not drawn) [drawing 114] | – | IC50 [1]: > 1000 nM; EC50 (HCV replicon [2]; luciferase method): 1000 to 10000 nM |
| CC(C)(C)OC(=O)/C=C/c1ccc(NC(=O)C2(NC(=O)c3ccc4c(C5CCCCC5)c5n(c4c3)CC(=O)N5Cc3ccccc3)CCCC2)cc1 | > 10000 | – |
| CCOC(=O)/C=C/c1ccc(NC(=O)C2(N(C)C(=O)c3ccc4c(C5CCCCC5)c5n(c4c3)CCCc3ccccc3-5)CCCC2)cc1 | 1000 to 10000 | IC50 [3]: > 1000 nM |
| O=C1Cn2c(c(C3CCCCC3)c3ccc(C(=O)O)cc32)N1 | > 10000 | – |
| O=C(O)c1ccc2c(C3CCCCC3)c3n(c2c1)CCCn1ccnc1-3 | > 10000 | – |
| O=C(O)c1ccc2c(C3CCCCC3)c3n(c2c1)CC(=O)N3c1ccccc1 | > 10000 | – |
| CCOC(=O)/C=C/c1ccc(NC(=O)C2(NC(=O)c3ccc4c(C5CCCCC5)c5n(c4c3)C(OC)c3ccccc3-5)CCCC2)cc1 (stereo not drawn) | 1000 to 10000 | – |
| COC(=O)c1ccc2c(C3CCCCC3)c3n(c2c1)CC(=O)N3 | 1000 to 10000 | – |
| O=C(O)c1ccc2c(C3CCCCC3)c3n(c2c1)CCOc1ccccc1-3 | 10 to 1000 | – |
| COC1c2ccccc2-c2c(C3CCCCC3)c3ccc(C(=O)NC4(C(=O)Nc5ccc(/C=C/C(=O)O)cc5)CCCC4)cc3n21 (stereo not drawn) | 10 to 1000 | IC50 [3]: 20 to 1000 nM |
| COC(=O)c1ccc2c(C3CCCCC3)c3n(c2c1)CC(=O)N3c1ccccc1 | > 10000 | – |
| O=C(O)c1ccc2c(C3CCCCC3)c3n(c2c1)CCOc1cccnc1-3 [Example 13, 13-cyclohexyl-6,7-dihydropyrido[2′,3′:6,7][1,4]oxazepino[4,5-a]indole-10-carboxylic acid] | – | EC50 (HCV replicon [2]; [5]): 100 to 1000 nM |
| CCNC(=O)N(CCCN(C)C)C(=O)c1ccc2c(C3CCCCC3)c3n(c2c1)CCCc1ccccc1-3 | 1000 to 10000 | – |
| O=C(O)/C=C/c1ccc(NC(=O)C2(NC(=O)c3ccc4c(C5CCCCC5)c5n(c4c3)C/C=C\CNc3ccccc3-5)CCCC2)cc1 | 10 to 1000 | IC50 [3]: 20 to 1000 nM |
| COC(=O)c1ccc2c(C3CCCCC3)c3n(c2c1)CC(=O)N3Cc1ccccc1 | 1000 to 10000 | – |

| Structure (SMILES) | EC50 (HCV replicon [2]; [6]) [nM] | other results |
| --- | --- | --- |
| COC(=O)/C=C/c1ccc(NC(=O)C2(NC(=O)c3ccc4c(C5CCCCC5)c5n(c4c3)CCOc3ccccc3-5)CCCC2)cc1 | – | IC50 [1]: > 1000 nM |
| Cn1c(-c2ccccc2)c(C2CCCCC2)c2ccc(C(=O)NC3(c4nnnn4CC(=O)O)CCCC3)cc21 | > 10000 | – |
| CCOC(=O)c1cc2ccccc2c2c(C3CCCCC3)c3ccc(C(=O)OC)cc3n12 [drawing 141] | > 10000 | – |
| CCOC(=O)/C=C/c1ccc(NC(=O)C2(NC(=O)c3ccc4c(C5CCCCC5)c5n(c4c3)CC(=O)Nc3ccccc3-5)CCCC2)cc1 | 10 to 1000 | – |
| O=C(O)/C=C/c1ccc(NC(=O)C2(NC(=O)c3ccc4c(C5CCCCC5)c5n(c4c3)CCCc3occc3-5)CCCC2)cc1 | – | EC50 (HCV replicon [2]; [5]): < 100 nM |
| COC(=O)c1ccc2c(C3CCCCC3)c3n(c2c1)CC(NC(=O)N1CCOCC1)Cc1ccccc1-3 (stereo not drawn) | 1000 to 10000 | – |
| O=C(O)c1ccc2c(C3CCCCC3)c3n(c2c1)CC(=O)N3Cc1ccccc1 | > 10000 | – |
| COC(=O)/C=C/c1ccc(NC(=O)C2(NC(=O)c3ccc4c(C5CCCCC5)c5n(c4c3)CCCc3occc3-5)CCCC2)cc1 | – | EC50 (HCV replicon [2]; [5]): 100 to 1000 nM |
| COC(=O)c1ccc2c(C3CCCCC3)c3n(c2c1)CCCc1cc(O)ccc1-3 [Example 5, Methyl 13-cyclohexyl-3-hydroxy-6,7-dihydro-5H-indolo[2,1-a][2]benzazepine-10-carboxylate] | – | EC50 (HCV replicon [2]; [5]): > 10000 nM |
| O=C(O)c1ccc2c(C3CCCCC3)c3n(c2c1)CC/C=C\Nc1ccccc1-3 | 1000 to 10000 | – |
| O=C(O)/C=C/c1ccc(NC(=O)C2(NC(=O)c3ccc4c(C5CCCCC5)c5n(c4c3)CCCc3ccccc3-5)CCCC2)cc1 | 10 to 1000 | IC50 [3]: 20 to 1000 nM |
| COC(=O)c1ccc2c(C3CCCCC3)c3n(c2c1)CC=Cc1cc(OCc2ccccc2)ccc1-3 [Example 4, Methyl 13-cyclohexyl-3-benzyloxy-7H-indolo[2,1-a][2]benzazepine-10-carboxylate] | – | EC50 (HCV replicon [2]; [5]): > 10000 nM |
| O=C(O)c1ccc2c(C3CCCCC3)c3n(c2c1)CC(C(=O)O)Cc1ccccc1-3 (stereo not drawn) [drawing 147] | > 10000 | – |
| COC(=O)c1ccc2c(C3CCCCC3)c3n(c2c1)CC=Cc1ccccc1-3 [Example 1, Methyl 13-cyclohexyl-7H-indolo[2,1-a][2]benzazepine-10-carboxylate] | – | EC50 (HCV replicon [2]; [5]): > 10000 nM |
| O=C(O)/C=C/c1ccc(NC(=O)C2(NC(=O)c3ccc4c(C5CCCCC5)c5n(c4c3)CCCn3ccnc3-5)CCCC2)cc1 | 1000 to 10000 | IC50 [3]: 20 to 1000 nM |
| CN(C)S(=O)(=O)NC(=O)c1ccc2c(C3CCCCC3)c3n(c2c1)CC(C(=O)N1CCCOCC1)=Cc1ccccc1-3 | – | IC50 [3]: 20 to 1000 nM; EC50 (HCV replicon [4]): 10 to 1000 nM |
